Activity calls are given as the source filed them.
Experiments:
Cytochrome P450 1A2 = molecular target: T1, Cytochrome P450 1A2 (Homo sapiens, UniProt P05177);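 also: PubChem cytochrome P450 panel assay, CYP1A2 panel member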
T1 sequence (P05177 whole entry): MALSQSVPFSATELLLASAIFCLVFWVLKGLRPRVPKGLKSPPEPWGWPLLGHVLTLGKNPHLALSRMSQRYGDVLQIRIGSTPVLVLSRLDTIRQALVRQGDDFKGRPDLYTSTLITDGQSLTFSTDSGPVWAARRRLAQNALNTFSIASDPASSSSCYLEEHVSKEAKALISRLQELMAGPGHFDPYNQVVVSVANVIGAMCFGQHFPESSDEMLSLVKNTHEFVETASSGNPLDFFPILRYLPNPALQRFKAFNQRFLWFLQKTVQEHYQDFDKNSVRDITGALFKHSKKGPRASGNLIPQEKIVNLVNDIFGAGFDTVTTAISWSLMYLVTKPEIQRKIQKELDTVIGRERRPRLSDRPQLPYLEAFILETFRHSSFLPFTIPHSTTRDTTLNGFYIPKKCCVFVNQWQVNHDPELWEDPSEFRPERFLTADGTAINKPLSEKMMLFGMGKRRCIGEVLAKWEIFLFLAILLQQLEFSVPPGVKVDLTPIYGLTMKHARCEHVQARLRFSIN

Cytochrome P450 3A4 = Cytochrome P450 3A4 (Homo sapiens, UniProt P08684);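 also: CYP3A4 tested as one member of a cytochrome P450 panel screen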
Cytochrome P450 2C19 = Cytochrome P450 2C19 (Homo sapiens, UniProt P33261); experiment: Cytochrome panel assay with activity outcomes. Panel member name: p450-cyp2c19 Compounds with AC50 equal or less than 10 uM are considered active; format: functional
Cytochrome P450 2C9 = Cytochrome P450 2C9 (Homo sapiens, UniProt P11712)
Cytochrome P450 2D6 = Cytochrome P450 2D6 (Homo sapiens, UniProt P10635);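 also: CYP2D6 member of a cytochrome P450 panel assay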
[1] = molecular target: Nuclear receptor subfamily 0 group B member 1 (Homo sapiens, UniProt P51843); experiment: Luminescence-based cell-based high throughput dose response assay for inhibitors of the orphan nuclear receptor subfamily 0, group B, member 1 (DAX1; NR0B1). [Related pubchem assays (depositor defined):AID504766, AID504790]; format: functional
HEK293 [2] = experiment: cells; format: functional, cell-based; settings: Homo sapiens
HeLa = experiment: ATP-based viability loss in HeLa cells – cell-based, CellTiter-Glo luminescence, cherry-pick samples, cytotoxicity control for MITF activator project, dose response (AID 540259); format: functional; settings: Homo sapiens
H4 = experiment: Luminescence Cell-Based Dose Response HTS to Identify Activators of 5'UTR Stem-Loop Driven Prion Protein mRNA Translation in H4 Neuroglioblastoma Cells. [Related pubchem assays: 1829 (Project Summary), 1814 (Primary HTS)]; format: functional; settings: Homo sapiens
[3] = Luminescence Cell-Based Dose Response HTS to Identify Activators of Luciferase Translation or Activity in H4 […] Cells. [Related pubchem assays: 1829 (Project Summary), 1814 (Primary HTS)]; format: functional
[4] = Luminescence Cell-Based Dose Confirmation HTS to Identify Activators of 5'UTR Stem-Loop Driven Alpha-Synuclein mRNA Translation in H4 Neuroglioblastoma Cells. [Related pubchem assays: 1829 (Project Summary), 1814 (Primary HTS)]; format: functional
INS1 [5] = experiment: INS-1E survival protection against cytokine death – cell-based, luminescence, retest, dose response (AID 449756); format: functional; settings: Rattus norvegicus;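 also: cell death triggered by IL-1 beta plus TNF-alpha plus IFN-gamma mixture; protective hits raise ATP signal compared with cytokine alone wells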
[6] = viability loss of HMLE_sh_eGFP cells – cell-based, luminescence, counter-screen for HMLE_sh_ECad selective toxicity project, dose response (AID 463074); format: functional, Homo sapiens;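 also: HMLE human mammary epithelial cells expressing control shRNA against eGFP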
[7] = Luminescence Cell-Based Dose Retest to Confirm Inhibitors of Cancer Stem Cells. [Related pubchem assays (depositor defined):AID2717, AID2721]; format: functional; settings: Homo sapiens
INS1 [8] = experiment: INS-1E mitochondrial potential rescue under cytokines – cell-based, JC-1 fluorescence ratio, dry powder, dose response (AID 488931); format: functional; settings: Rattus norvegicus
INS1 [9] = experiment: beta-cell survival under cytokine stress – INS-1E, ATP luminescence, dry powder, dose response (AID 488844); format: functional, cell-based; settings: Rattus norvegicus
INS1 [10] = experiment: suppression of cytokine-induced beta-cell apoptosis – INS-1E, caspase luminescence, dry powder, beta-cell apoptosis inhibitor project, dose response (AID 488848); format: functional, cell-based; settings: Rattus norvegicus
[11] = molecular target: T2, Voltage-gated N-type calcium channel alpha-1B subunit/Amyloid beta A4 precursor protein-binding family A member 1 (Homo sapiens, UniProt Q00975+Q02410); format: protein assay
[12] = molecular target: T2, Voltage-gated N-type calcium channel alpha-1B subunit/Amyloid beta A4 precursor protein-binding family A member 1; format: protein assay; remark: listed apart in the source
[13] = molecular target: T3, Apoptotic protease-activating factor 1 (Homo sapiens, UniProt O14727); experiment: activation of Apaf-1 mediated apoptosis – fluorescent, uHTS hits, dose response (AID 588554); format: functional
T3 sequence (O14727 whole entry): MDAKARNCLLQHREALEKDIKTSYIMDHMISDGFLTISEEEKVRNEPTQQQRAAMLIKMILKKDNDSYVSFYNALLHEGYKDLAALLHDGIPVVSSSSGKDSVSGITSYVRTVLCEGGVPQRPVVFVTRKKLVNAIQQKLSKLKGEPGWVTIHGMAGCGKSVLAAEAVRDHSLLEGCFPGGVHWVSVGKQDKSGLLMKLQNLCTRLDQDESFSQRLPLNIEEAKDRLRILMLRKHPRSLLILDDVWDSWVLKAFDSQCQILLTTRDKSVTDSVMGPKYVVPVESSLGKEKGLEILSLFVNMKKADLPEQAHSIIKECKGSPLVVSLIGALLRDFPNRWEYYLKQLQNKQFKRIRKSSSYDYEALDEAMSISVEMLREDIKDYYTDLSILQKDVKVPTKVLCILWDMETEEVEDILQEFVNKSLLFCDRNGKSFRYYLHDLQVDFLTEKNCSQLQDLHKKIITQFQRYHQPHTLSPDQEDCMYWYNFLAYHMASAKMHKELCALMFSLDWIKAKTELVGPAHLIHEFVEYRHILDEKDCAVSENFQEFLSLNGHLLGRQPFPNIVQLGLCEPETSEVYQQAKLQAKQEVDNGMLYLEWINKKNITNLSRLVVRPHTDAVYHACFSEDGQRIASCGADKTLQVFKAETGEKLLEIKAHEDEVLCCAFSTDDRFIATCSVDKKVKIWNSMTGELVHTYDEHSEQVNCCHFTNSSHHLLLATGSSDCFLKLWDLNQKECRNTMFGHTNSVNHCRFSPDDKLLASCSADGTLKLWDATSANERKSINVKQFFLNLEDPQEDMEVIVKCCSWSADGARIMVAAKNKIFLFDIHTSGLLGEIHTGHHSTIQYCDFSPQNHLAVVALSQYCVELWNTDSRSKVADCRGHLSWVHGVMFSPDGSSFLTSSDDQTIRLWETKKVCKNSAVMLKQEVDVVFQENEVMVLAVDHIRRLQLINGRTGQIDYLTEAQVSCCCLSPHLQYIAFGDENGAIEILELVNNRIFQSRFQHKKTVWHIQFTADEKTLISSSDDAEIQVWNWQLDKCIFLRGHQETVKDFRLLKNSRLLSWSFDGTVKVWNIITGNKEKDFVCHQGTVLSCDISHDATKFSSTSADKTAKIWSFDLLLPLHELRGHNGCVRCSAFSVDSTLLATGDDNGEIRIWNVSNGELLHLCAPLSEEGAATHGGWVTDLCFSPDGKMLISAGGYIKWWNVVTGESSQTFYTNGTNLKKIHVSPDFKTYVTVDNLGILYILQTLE

Phosphomannomutase 2 = Phosphomannomutase 2 (Homo sapiens, UniProt O15305); experiment: Counter screen SAR assay for PMM2 inhibitors via a fluorescence intensity assay. [Related pubchem assays (depositor defined):AID1545, AID1574]
[14] = molecular target: T4, Mannose-6-phosphate isomerase (Homo sapiens, UniProt P34949); experiment: phosphomannose isomerase inhibition – biochemical, fluorescence intensity, confirmation (AID 1535)
T4 sequence (P34949 whole entry): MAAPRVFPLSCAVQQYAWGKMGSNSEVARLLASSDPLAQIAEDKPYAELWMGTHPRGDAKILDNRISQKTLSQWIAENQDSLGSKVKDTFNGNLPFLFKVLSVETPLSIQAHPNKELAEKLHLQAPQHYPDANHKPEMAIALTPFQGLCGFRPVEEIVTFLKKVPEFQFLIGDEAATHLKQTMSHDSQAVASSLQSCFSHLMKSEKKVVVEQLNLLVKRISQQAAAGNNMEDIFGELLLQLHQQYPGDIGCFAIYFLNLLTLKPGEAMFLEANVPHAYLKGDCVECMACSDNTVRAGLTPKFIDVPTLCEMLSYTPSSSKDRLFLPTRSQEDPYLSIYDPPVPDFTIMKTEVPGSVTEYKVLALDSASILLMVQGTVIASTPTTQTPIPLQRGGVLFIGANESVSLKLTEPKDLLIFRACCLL

HEK293 [15] = experiment: inhibition of NOD1-driven NF-kB reporter – cell-based, luminescence, uHTS, primary screen (AID 1578); format: functional; settings: Homo sapiens
HEK293 [16] = experiment: cells; format: functional, cell-based; settings: Homo sapiens; remark: listed apart in the source
HEK293 [17] = experiment: cells; settings: Homo sapiens
[18] = molecular target: Nucleotide-binding oligomerization domain-containing protein 1 (Homo sapiens, UniProt Q9Y239); experiment: blockers of NOD1 pathway activity – revised, SAR follow-up (AID 2333); format: functional
H9c2 = experiment: cells; format: functional, cell-based; settings: Rattus norvegicus, H9c2, Myocardium;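 also: confirmatory concentration-response retest of ultra-high-throughput screening hits for modulation of myocardial damage; cell death induced by hydrogen peroxide oxidative stress; compound pretreatment for 60 min then peroxide exposure for 2 h; potency is for protecting the cells against peroxide damage rather than for killing them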
HEK293 [19] = experiment: NOD2 signaling inhibitors in MDP-stimulated cells, cell-based, uHTS, luminescence (AID 2001); format: functional; settings: Homo sapiens
[20] = molecular target: Nucleotide-binding oligomerization domain-containing protein 2 (Homo sapiens, UniProt Q9HC29); experiment: inhibition of NOD2-driven NF-kB reporter – cell-based, luminescence, uHTS, HEK293 (AID 1566); format: functional
HEK293 [21] = experiment: cells; format: functional, cell-based; settings: Homo sapiens; remark: listed apart in the source
Tumor necrosis factor = Tumor necrosis factor (Homo sapiens, UniProt P01375); experiment: analog potency on TNFa NF-kB signaling – cell-based, revised, SAR follow-up (AID 2337); format: functional
HEK293 [22] = experiment: cells; format: functional, cell-based; settings: Homo sapiens; remark: listed apart in the source
[23] = molecular target: Beta-adrenergic receptor kinase 1 (Homo sapiens, UniProt P25098); experiment: aptamer displacement from bead-bound GRK2 – biochemical, cherry pick 1, bead flow cytometry, dose response (AID 504500)
CAAX prenyl protease 2 = CAAX prenyl protease 2 (Homo sapiens, UniProt Q9Y256); experiment: inhibition of Ras-converting CAAX protease Rce1 – biochemical, yeast membranes, quenched-peptide fluorescence, cherry-pick, dose response (AID 588849)
Estrogen receptor beta [24] = molecular target: T5, Estrogen receptor beta (Homo sapiens, UniProt Q92731);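 also: recombinant ER-beta bound to coactivator SRC1 peptide in presence of estradiol agonist; inhibitors block coactivator peptide binding and lower the FRET signal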
[25] = molecular target: T2, Voltage-gated N-type calcium channel alpha-1B subunit/Amyloid beta A4 precursor protein-binding family A member 1; experiment: disruptors of Mint-PDZ/N-type channel peptide interaction – biochemical, HTRF, SAR follow-up (AID 2489); format: functional
SUMO E1/E2 = SUMO E1/E2 (Homo sapiens, UniProt P63279+Q9UBE0+Q9UBT2); experiment: SAR analysis of SUMOylation using HTRF in an in-Vitro dose response assay. [Related pubchem assays (depositor defined):AID2006, AID2011, AID2018, AID2069, AID2658]; format: functional
[26] = molecular target: T2, Voltage-gated N-type calcium channel alpha-1B subunit/Amyloid beta A4 precursor protein-binding family A member 1; experiment: disruptors of Mint-PDZ/N-type channel peptide interaction – biochemical, HTRF, set 2, SAR follow-up (AID 434980); format: functional
Estrogen receptor beta [27] = molecular target: T5, Estrogen receptor beta; experiment: blockers of SRC-3 recruitment to ERβ – biochemical, ELISA, streptavidin-HRP readout, orthogonal assay, confirmation (AID 1060)

T2 sequence (Q00975 whole entry): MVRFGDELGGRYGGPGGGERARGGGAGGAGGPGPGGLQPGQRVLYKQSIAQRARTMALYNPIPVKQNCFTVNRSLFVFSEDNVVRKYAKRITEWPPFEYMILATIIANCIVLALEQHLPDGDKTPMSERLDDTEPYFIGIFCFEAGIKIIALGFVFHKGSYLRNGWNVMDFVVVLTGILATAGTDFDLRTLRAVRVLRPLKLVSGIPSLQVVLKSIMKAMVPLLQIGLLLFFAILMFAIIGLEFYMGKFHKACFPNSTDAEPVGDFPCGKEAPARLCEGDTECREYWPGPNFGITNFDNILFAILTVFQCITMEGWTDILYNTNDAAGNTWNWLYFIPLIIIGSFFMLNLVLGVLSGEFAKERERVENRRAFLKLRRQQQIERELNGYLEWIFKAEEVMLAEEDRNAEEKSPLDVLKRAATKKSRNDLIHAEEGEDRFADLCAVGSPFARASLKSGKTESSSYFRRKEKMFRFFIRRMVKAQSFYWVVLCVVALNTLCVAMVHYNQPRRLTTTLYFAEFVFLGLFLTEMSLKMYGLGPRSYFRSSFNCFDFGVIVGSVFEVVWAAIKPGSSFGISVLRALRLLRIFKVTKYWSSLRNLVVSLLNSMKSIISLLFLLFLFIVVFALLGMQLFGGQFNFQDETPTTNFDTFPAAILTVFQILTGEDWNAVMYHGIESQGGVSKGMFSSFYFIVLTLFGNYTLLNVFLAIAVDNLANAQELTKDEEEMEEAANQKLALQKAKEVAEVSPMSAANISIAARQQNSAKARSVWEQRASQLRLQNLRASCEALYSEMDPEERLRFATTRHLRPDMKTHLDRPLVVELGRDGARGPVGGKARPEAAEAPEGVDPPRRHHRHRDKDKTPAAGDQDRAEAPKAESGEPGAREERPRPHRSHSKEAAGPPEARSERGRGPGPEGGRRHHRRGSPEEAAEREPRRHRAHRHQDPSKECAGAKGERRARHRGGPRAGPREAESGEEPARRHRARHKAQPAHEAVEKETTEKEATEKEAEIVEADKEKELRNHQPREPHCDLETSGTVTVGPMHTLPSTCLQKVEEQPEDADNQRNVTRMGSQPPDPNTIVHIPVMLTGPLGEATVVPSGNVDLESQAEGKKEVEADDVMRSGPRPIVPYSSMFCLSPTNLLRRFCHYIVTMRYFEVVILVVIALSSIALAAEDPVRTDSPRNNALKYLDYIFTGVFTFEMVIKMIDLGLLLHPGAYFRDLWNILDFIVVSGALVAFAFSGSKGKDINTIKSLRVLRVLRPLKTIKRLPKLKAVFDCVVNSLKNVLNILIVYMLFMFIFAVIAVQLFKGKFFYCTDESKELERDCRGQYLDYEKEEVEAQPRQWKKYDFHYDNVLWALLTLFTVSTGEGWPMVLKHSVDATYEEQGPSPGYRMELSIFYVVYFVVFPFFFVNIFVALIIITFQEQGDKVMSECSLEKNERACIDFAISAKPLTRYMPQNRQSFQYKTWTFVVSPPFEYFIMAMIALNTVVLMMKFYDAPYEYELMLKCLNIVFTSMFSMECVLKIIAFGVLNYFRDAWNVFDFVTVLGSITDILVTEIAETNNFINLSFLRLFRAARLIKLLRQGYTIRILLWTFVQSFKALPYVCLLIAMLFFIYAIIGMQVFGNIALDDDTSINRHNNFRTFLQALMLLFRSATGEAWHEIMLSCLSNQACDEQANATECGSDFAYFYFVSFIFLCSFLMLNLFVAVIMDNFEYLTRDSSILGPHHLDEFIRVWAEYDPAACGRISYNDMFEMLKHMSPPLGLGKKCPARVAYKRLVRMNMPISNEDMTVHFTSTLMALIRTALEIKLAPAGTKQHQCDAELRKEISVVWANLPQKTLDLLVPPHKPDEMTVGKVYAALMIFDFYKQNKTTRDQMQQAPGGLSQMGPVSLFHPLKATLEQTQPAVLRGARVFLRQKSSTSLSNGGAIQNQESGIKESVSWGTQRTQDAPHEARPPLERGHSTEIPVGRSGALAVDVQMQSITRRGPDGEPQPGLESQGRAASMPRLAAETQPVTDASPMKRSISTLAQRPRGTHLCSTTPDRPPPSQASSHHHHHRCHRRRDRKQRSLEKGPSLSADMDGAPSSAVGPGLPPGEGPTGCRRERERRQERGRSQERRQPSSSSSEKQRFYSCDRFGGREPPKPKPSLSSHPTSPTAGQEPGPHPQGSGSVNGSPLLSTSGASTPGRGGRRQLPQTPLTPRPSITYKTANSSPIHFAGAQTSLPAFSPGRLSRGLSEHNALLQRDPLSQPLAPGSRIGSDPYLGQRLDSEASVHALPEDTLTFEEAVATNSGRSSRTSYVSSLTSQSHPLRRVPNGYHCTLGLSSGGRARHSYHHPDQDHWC
T2 sequence (Q02410 whole entry): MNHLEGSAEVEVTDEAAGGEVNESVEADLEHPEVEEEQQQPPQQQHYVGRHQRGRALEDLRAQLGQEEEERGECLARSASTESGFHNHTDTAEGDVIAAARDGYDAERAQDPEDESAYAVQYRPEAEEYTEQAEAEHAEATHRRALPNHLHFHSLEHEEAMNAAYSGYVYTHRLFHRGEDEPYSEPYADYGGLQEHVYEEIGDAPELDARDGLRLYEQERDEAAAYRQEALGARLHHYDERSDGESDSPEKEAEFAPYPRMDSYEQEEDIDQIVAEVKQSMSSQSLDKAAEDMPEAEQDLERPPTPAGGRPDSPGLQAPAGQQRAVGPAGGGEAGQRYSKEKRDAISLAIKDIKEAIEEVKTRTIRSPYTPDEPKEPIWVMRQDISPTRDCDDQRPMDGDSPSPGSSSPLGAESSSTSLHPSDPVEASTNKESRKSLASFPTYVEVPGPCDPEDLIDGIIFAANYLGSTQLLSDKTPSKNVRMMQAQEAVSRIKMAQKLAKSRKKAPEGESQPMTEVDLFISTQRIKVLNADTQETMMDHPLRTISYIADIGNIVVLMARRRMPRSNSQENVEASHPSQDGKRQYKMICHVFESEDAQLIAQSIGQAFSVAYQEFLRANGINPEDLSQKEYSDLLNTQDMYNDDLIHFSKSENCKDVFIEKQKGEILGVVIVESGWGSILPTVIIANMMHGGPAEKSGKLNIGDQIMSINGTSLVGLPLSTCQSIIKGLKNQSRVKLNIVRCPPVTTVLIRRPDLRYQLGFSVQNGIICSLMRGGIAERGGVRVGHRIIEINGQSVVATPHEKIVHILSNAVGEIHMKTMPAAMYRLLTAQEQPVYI
T5 sequence (Q92731 whole entry): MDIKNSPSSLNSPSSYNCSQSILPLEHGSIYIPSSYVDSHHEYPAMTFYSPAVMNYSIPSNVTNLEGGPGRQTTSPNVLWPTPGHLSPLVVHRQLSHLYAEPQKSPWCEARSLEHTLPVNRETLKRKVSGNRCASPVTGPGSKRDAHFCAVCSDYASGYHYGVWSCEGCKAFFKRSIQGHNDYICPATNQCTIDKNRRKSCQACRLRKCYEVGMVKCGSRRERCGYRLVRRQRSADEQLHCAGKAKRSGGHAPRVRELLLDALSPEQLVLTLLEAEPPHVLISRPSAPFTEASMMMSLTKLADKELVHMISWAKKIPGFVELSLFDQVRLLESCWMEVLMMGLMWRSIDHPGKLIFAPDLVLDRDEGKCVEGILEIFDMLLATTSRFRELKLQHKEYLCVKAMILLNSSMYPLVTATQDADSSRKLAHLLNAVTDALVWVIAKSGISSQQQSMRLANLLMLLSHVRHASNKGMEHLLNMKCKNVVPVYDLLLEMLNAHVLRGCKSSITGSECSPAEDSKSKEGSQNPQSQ
CAAX prenyl protease 2, sequence (Q9Y256 whole entry): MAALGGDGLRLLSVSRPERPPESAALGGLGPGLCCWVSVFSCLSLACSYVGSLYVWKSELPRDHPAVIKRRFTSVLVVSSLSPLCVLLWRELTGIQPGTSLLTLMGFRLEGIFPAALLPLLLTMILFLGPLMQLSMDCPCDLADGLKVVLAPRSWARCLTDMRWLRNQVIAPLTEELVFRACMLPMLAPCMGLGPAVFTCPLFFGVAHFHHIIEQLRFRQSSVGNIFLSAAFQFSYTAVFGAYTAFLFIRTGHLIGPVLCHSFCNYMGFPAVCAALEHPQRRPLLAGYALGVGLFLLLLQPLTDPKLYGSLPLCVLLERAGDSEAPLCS
Nucleotide-binding oligomerization domain-containing protein 2, sequence (Q9HC29 whole entry, the tested form may be a part): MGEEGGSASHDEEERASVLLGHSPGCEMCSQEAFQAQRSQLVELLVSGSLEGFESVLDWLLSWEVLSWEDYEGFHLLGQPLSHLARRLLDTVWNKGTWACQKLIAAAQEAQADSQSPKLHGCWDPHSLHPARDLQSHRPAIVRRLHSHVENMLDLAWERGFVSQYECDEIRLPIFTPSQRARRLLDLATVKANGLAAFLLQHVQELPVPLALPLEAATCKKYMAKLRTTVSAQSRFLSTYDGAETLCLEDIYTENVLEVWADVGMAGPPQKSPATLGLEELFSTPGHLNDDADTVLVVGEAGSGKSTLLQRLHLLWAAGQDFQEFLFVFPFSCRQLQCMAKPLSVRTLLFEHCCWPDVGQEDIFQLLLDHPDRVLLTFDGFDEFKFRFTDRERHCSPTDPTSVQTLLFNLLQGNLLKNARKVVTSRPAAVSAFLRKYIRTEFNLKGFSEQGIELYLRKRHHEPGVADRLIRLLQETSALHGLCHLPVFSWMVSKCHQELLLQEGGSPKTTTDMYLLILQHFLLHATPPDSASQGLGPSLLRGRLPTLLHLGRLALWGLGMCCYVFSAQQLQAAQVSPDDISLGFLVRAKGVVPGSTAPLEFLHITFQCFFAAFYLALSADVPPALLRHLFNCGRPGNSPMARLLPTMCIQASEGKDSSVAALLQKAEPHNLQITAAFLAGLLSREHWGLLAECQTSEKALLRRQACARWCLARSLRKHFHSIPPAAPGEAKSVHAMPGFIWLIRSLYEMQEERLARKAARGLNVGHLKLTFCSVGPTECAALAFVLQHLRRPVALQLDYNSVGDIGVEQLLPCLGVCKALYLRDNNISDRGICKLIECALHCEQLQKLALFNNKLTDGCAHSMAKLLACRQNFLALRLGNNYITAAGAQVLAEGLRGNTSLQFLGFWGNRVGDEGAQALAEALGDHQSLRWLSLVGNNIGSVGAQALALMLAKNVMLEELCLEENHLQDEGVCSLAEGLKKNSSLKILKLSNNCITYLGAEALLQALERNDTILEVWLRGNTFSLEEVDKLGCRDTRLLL

N#Cc1cccc(NC(=O)N2CC[C@@]3(CCCN(C(=O)Oc4ccccc4)C3)C2)c1
AC50 (Cytochrome P450 1A2): inconclusive
AC50 (Cytochrome P450 3A4): 2.51 µM (inconclusive)
AC50 (Cytochrome P450 2C19): inconclusive
AC50 (Cytochrome P450 2C9): inconclusive
AC50 (Cytochrome P450 2D6): inconclusive

CCOc1ccc2nc(NS(=O)(=O)Cc3ccccc3)sc2c1
IC50 [1]: > 67.5 µM (inactive)
IC50 (HEK293 [2]): > 67.5 µM (inactive)

COc1ccc(/C(O)=C/C=N/c2cccc(C)n2)cc1OC
AC50 (HeLa): 50.8 µM (active)
EC50 (H4): 48.3 µM (active)
EC50 [3]: 0.122 µM (active)
EC50 [4]: 0.146 µM (active)

C=CC[n+]1c(-c2ccc(OCC)cc2)csc1NNC(=O)Nc1ccccc1
AC50 (INS1 [5]): 6.63 µM (active)
AC50 [6]: 24.7 µM (active)
AC50 [7]: 88.4 µM (active)

C[C@@H]1CN([C@@H](C)CO)C(=O)c2cccc(NC(=O)Nc3ccc(F)cc3)c2O[C@H]1CN(C)S(=O)(=O)c1ccc(F)cc1
AC50 (INS1 [8]): 63.3 µM (active)
AC50 (INS1 [9]): 72 µM (active)
AC50 (INS1 [10]): > 195 µM (inactive)

O=C(CCS(=O)(=O)c1ccc(Br)cc1)NCc1ccco1
IC50 [11]: 12.1 µM (active)
IC50 [12]: > 50 µM (inactive)
EC50 [13]: 23.4 µM (active)

Clc1nss/c1=N\c1nc2ccccc2s1
IC50 (Phosphomannomutase 2): > 100 µM (inactive)
IC50 [14]: > 100 µM (inactive)

Cc1c(O)ccc2c(-c3ccccc3)cc(=O)oc12
EC50 (HEK293 [15]): 16.3 µM (active)
IC50 (HEK293 [16]): > 20 µM (inactive)
IC50 (HEK293 [17]): > 20 µM (inactive)
IC50 [18]: 6.53 µM (active)
IC50 (H9c2): > 79 µM (inactive)
IC50 (HEK293 [19]): 6.85 µM (active)
EC50 [20]: 4.67 µM (active)
IC50 (HEK293 [21]): 5.78 µM (active)
IC50 (Tumor necrosis factor): 6.62 µM (active)
IC50 (HEK293 [22]): > 20 µM (inactive)

CCCC[N+](C)(C)CCC(=O)NC(C)(C)CS(=O)(=O)[O-]
EC50 [23]: 4.53 µM (active)

COc1cccc(/C=C/C(=O)OCC(=O)Nc2ccc(Cl)c(S(=O)(=O)N(C)C)c2)c1OC
AC50 (CAAX prenyl protease 2): 20.9 µM (active)

COc1ccc(CNC(=O)COC(=O)c2cc(-c3ccco3)nc3ccccc23)cc1
IC50 (Estrogen receptor beta [24]): < 1.56 µM (active)
IC50 [25]: > 56.8 µM (inactive)
IC50 (SUMO E1/E2): 6.59 µM (active)
IC50 [26]: 11.4 µM (active)
IC50 (Estrogen receptor beta [27]): > 50 µM (not active)

From ChEMBL document CHEMBL1201862, “PubChem BioAssay data set” (2004)
